These results are taken from paper PMC11279916, “Application of ^99mTc-Labeled WL12 Peptides as a Tumor PD-L1-Targeted SPECT Imaging Agent: Kit Formulation, Preclinical Evaluation, and Study on the Influence of Coligands” (Pharmaceuticals, 2024).

This test has as its target PD-L1 protein (Homo sapiens, UniProt Q9NZQ7). In words: TR-FRET in vitro affinity assay (IC50). To be noted: PD-L1-biotin / PD-1-Eu. In kind it is binding. The protocol:
Fig. S3. HPLC analysis of HYNIC-WL12 (tR = 14.29 min, purity 95.84%).
In Vitro Affinity Assay: Determination of IC50
The affinity of WL12 and HYNIC-WL12 for the PD-L1 protein was determined via a time-resolved fluorescence energy transfer (TR-FRET) assay. In brief, 200 nL of WL12 or HYNIC-WL12 solutions at different concentrations (from 0.5-10000 nM) in 10% ethanol were transferred to 384-well plates on an Echo550 […]
instrument. Then, 5 µL of PD-L1-biotin solution was added, and the plates were centrifuged at 1000 rpm for 30 s and incubated at room temperature. After incubation for 15 min, the mixed solution containing PD-1-Eu and dye-labeled acceptor was added. Then, the plates were centrifuged at 1000 rpm for 30 s and incubated for 90 min at room temperature. Finally, the 665 nm-to-615 nm ratios were read on a microplate reader, and the IC50 values of the two peptides were calculated. […]
For RP-HPLC analysis of [99mTc]Tc-HYNIC-WL12-tricine/M, phase A was water containing 0.1% trifluoroacetic acid (TFA), and phase B was acetonitrile containing 0.1% trifluoroacetic acid (TFA). […] Additionally, the radiochemical purity of [99mTc]Tc-HYNIC-WL12-tricine/M was determined by instant thin layer chromatography on silica gel (iTLC-SG, Agilent, China) using acid-citrate-dextrose solution (ACD solution, pH = 4.5-5.5) as the mobile phase solvent. […]
Effect of HYNIC-WL12 Quantities on the Radiochemical Yield […]
In general terms: In TR-FRET formats the signal depends on donor and acceptor labels being close together.

PD-L1 protein, sequence (Q9NZQ7 19-238 limits assumed): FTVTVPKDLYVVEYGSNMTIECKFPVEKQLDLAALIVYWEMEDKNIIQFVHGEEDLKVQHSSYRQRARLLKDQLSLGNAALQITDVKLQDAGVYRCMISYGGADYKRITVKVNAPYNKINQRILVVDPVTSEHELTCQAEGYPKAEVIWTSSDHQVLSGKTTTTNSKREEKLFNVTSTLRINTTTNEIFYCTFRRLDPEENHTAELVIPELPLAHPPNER

In general, IC50 refers to the point on the concentration scale where inhibition reaches its midpoint. High values mean a need for much substance, low ones inhibition by little substance. In turn, `CCCC[C@H]1C(=O)N(C)[C@@H](CCCC)C(=O)N[C@@H](CCCNC(=O)c2ccc(NN)nc2)C(=O)N[C@H](C(=O)NCC(N)=O)CSCC(=O)N[C@@H](Cc2ccc(O)cc2)C(=O)N(C)[C@@H](C)C(=O)N[C@@H](CC(N)=O)C(=O)N2CCC[C@H]2C(=O)N[C@@H](Cc2c[nH]cn2)C(=O)N[C@@H](CC(C)C)C(=O)N2C[C@H](O)C[C@H]2C(=O)N[C@@H](Cc2c[nH]c3ccccc23)C(=O)N[C@@H](CO)C(=O)N[C@@H](Cc2cn(C)c3ccccc23)C(=O)N1C` [HYNIC-WL12] showed a half-inhibitory concentration (IC50) of 170 nM. This counts as sub-micromolar.
